Where a SMILES comes first, the peptide text is derived from it.
Assays:
[1] = mouse, in vivo
Description: To analyze the in vivo half-life of ACP52CGK, Cy5-labeled ACP52CGK was injected into the tail vein of the mouse, and then the fluorescence intensity remaining in the mouse body was measured over time by live imaging process.

[2] = system: CHK1/2, CDC25c, CDK1, cyclin B, caspases; assay: Expression of cell cycle and apoptosis marker proteins after ACP52C treatment; format: cell-based
[3] = system: lung cancer cell lines (A549, PC9, KCL22); assay: Immunoblot of CP2c pathway proteins in lung cancer cell lines treated with ACP52C; format: cell-based
Source text: (§1) Since MDM2p60 is known to be a protein in which the C-terminal region of MDM2p90 comprising sites (S386, S395, and S407) phosphorylated by ATM is deleted, it was speculated that the MDM2 degradation would not be properly regulated by ACP52C treatment (FIG. 29, FIGS. 30a to 30c).

[4] = system: various cancer cell lines; assay: Anticancer effect of ACP52C in various carcinomas (GI50, FIG. 1); format: cell-based
Source text: FIG. 1 illustrates GI50 values dependent upon ACP52C treatment in various cancer cell lines.
The selected peptide binds to CP2c and inhibits the formation of a transcription factor complex including CP2c (CP2c homotetramer and CP2c/CP2b/PIAS1 heterohexamer), thereby indirectly interfering with DNA binding of CP2c.

cell cycle (G2/M, subG1) = assay: FACS cell cycle analysis after cell cycle synchronization; format: cell-based
Source text: The growth inhibitory and cell death-inducing efficacy of ACP52C was confirmed by FACS analysis by treating cells with ACPS2C after synchronizing the cell cycle to the G1/S phase through a double thymidine block method.

[5] = system: A549 cell line in which MDM2 overexpression is chronically induced; assay: MTT assay in A549 cell line with chronically induced MDM2 overexpression; format: cell-based; conditions: doxycycline for 3 weeks, MDM2p90 overexpressed
Source text: as §1

[6] = Half-life in solution containing 10% serum by HPLC; format: in vitro ADME; conditions: HPLC after removing serum proteins
Description: (§2) The ACP52C half-life in the solution containing serum was analyzed by HPLC (model: UHPLC DIONEX Ultimate 3000; Flow=1.000 ml/min) after incubation of ACP52C in the solution containing 10% serum for various times and then removing serum proteins with Centricon (Mw10,000) before HPLC analysis. […] Meanwhile, after injecting ACP52C into the mouse via tail vein, blood samples were extracted over time and the degree of ACP52C degradation in the blood samples was analyzed by HPLC.

[7] = Preliminary repeated toxicity test of ACP52C; format: in vivo, mouse; conditions: 100 mg/kg and 1000 mg/kg repeatedly administered twice
Description: A repeated toxicity test for the in vivo administration of ACP52CGK was conducted using female and male mice. […] As a full-scale experiment, after intravenous infusion of ACP52CGK for 28 days at 3-day intervals into the solvent group and high-dose group (100 mg/Kg) of 6 males and females each, the weight change, drinking water intake, and main histological analysis of organs, organ weight, hematological tests and blood biochemical tests were analyzed.

[8] = Degradation in mouse blood samples after tail vein injection, HPLC; format: in vivo
Description: as §2

[9] = ELISA for antibody formation in sera of injected rabbits (immunogenicity); conditions: rabbit, in vivo
Source text: To verify this, immunogenicity of ACP52CG and ACP52CK was directly tested in the process of deriving the final new drug candidate. Since the final candidate material might be a C-16 palmitoyl acid-conjugated ACP52C peptide, which is not different with ACP52CG and ACP52CK in terms of chemical composition, it was decided to analyze whether antibodies were formed on ACP52CG and ACP52CK. […] Therefore, it was concluded that the final candidate material (ACP52CGK) would also not show immunogenicity in the human body (FIG. 21).

[10] = ACP52C-induced G2/M phase arrest

SMILES: CC(=O)N[C@@H](CC(N)=O)C(=O)N[C@@H](Cc1ccc(O)cc1)C(=O)N1CCC[C@H]1C(=O)N[C@@H](CCC(N)=O)C(=O)N[C@@H](CCCNC(=N)N)C(=O)N1CCC[C@H]1C(=O)N[C@@H](CS)C(=O)N[C@@H](CCCNC(=N)N)C(=O)NCC(=O)N[C@@H](CC(=O)O)C(=O)N[C@@H](CCCCN)C(=O)NCC(=O)N1CCC[C@H]1C(=O)N[C@@H](CC(=O)O)C(=O)N[C@@H](CS)C(N)=O [ACP52C] (Ac-NYPQRPCRGDKGPDC-NH2)
- presence in cancer tissues after injection [1]: observed in cancer tissues even 5 days after injection
- cell death induction mechanism [2]: apoptosis via activation of caspases
- expression of CDC25c, CDK1, and cyclin B proteins [2, 10]: decreased expression of CDC25c, CDK1, and cyclin B proteins
- expression of CHK1/2 protein [2, 10]: increased expression of CHK1/2 protein
- expression of MDM2 (p90 and p60) [3]: no decrease in the expression
- expression of YY1 [3]: decreased
- expression of p53, p63 and p73 [3]: did not show any change
- growth inhibition and cell death efficacy [4]: cancer cell-specific growth inhibition and cell death efficacy
- cell cycle effect (FACS) (cell cycle (G2/M, subG1); cell line synchronized to G2/M phase with thymidine/nocodazole): the cell cycle was arrested at the subG1 phase and cell death was induced
- cell cycle effect (FACS) (cell cycle (G2/M, subG1); cells synchronized to G1/S phase by double thymidine block): cell cycle arrest at the G2/M phase
- induction of cell death [5]: cell death was induced from the second week
- degradation in solution containing 10% serum [6]: not degraded at all until 24 hours
- liver toxicity or adverse effect on major organs [7]: any liver toxicity or adverse effect on major organs was not observed
- survival [7]: all the mice survived
- half-life in mouse blood [8]: about 2 hours
- immune response of sera from rabbits injected with ACP52CG and ACP52CK three times (ELISA) [9]: did not induce immune responses

From patent US12605453B2, “CP2C-targeting peptide-based anticancer agent” (Industry-University Cooperation Foundation Hanyang …, priority 2019, dated 2026)
